Measured values: ChEMBL document CHEMBL4017512 (J Med Chem, 2017)

Assays:
[1] = tested on: HCT-116; experiment: Antiproliferative activity against human HCT116 cells after 72 hrs by phosphatase assay; assay type: functional, cell-based; conditions: HCT-116, 72 h
[2] = Cytotoxicity against human HCT116/VM46 cells assessed as reduction in cell viability after 72 hrs by phosphatase assay; assay type: cell-based; conditions: HCT-116/VM46, 72 h
[3] = tested on: L1210; experiment: Antiproliferative activity against mouse L1210 cells after 72 hrs by phosphatase assay; assay type: functional, cell-based; conditions: L1210, 72 h

| SMILES | IC50 [1] | IC50 [2] | IC50 [3] |
| --- | --- | --- | --- |
| CC[C@]1(NC(=O)c2ccc3c(c2)CCCC3)C[C@H]2CN(CCc3c([nH]c4ccc(F)cc34)[C@@](C(=O)OC)(c3cc4c(cc3OC)N(C)[C@H]3[C@@](O)(C(=O)OC)[C@H](OC(C)=O)[C@]5(CC)C=CCN6CC[C@]43[C@@H]65)C2)C1 | 6.2 nM | 19 nM | 5 nM |
| CC[C@]1(NC(=O)c2ccc(NC)cc2)C[C@H]2CN(CCc3c([nH]c4ccccc34)[C@@](C(=O)OC)(c3cc4c(cc3OC)N(C)[C@H]3[C@@](O)(C(=O)OC)[C@H](OC(C)=O)[C@]5(CC)C=CCN6CC[C@]43[C@@H]65)C2)C1 | 0.33 nM | 6.2 nM | 0.38 nM |
| CC[C@]1(NC(=O)c2cccs2)C[C@H]2CN(CCc3c([nH]c4ccccc34)[C@@](C(=O)OC)(c3cc4c(cc3OC)N(C)[C@H]3[C@@](O)(C(=O)OC)[C@H](OC(C)=O)[C@]5(CC)C=CCN6CC[C@]43[C@@H]65)C2)C1 | 0.6 nM | 6.7 nM | 0.6 nM |
| CC[C@]1(NC(=O)C2CCCCC2)C[C@H]2CN(CCc3c([nH]c4ccccc34)[C@@](C(=O)OC)(c3cc4c(cc3OC)N(C)[C@H]3[C@@](O)(C(=O)OC)[C@H](OC(C)=O)[C@]5(CC)C=CCN6CC[C@]43[C@@H]65)C2)C1 | 70 nM | 760 nM | 55 nM |
| CC[C@]1(NC(=O)c2ccco2)C[C@H]2CN(CCc3c([nH]c4ccccc34)[C@@](C(=O)OC)(c3cc4c(cc3OC)N(C)[C@H]3[C@@](O)(C(=O)OC)[C@H](OC(C)=O)[C@]5(CC)C=CCN6CC[C@]43[C@@H]65)C2)C1 | 0.7 nM | 12 nM | 0.7 nM |
| CC[C@]1(NC(=O)c2ccc(N(C)C(=O)OC(C)(C)C)cc2)C[C@H]2CN(CCc3c([nH]c4ccccc34)[C@@](C(=O)OC)(c3cc4c(cc3OC)N(C)[C@H]3[C@@](O)(C(=O)OC)[C@H](OC(C)=O)[C@]5(CC)C=CCN6CC[C@]43[C@@H]65)C2)C1 | 3.9 nM | 35 nM | 4.1 nM |
| CC[C@]1(NS(=O)(=O)c2ccccc2[N+](=O)[O-])C[C@H]2CN(CCc3c([nH]c4ccccc34)[C@@](C(=O)OC)(c3cc4c(cc3OC)N(C)[C@H]3[C@@](O)(C(=O)OC)[C@H](OC(C)=O)[C@]5(CC)C=CCN6CC[C@]43[C@@H]65)C2)C1 | 420 nM | 440 nM | 360 nM |
| CC[C@]1(NC(=O)c2ccnnc2)C[C@H]2CN(CCc3c([nH]c4ccccc34)[C@@](C(=O)OC)(c3cc4c(cc3OC)N(C)[C@H]3[C@@](O)(C(=O)OC)[C@H](OC(C)=O)[C@]5(CC)C=CCN6CC[C@]43[C@@H]65)C2)C1 | 9 nM | 700 nM | 30 nM |
| CC[C@]1(NC(=O)c2ccc(S(=O)(=O)F)cc2)C[C@H]2CN(CCc3c([nH]c4ccccc34)[C@@](C(=O)OC)(c3cc4c(cc3OC)N(C)[C@H]3[C@@](O)(C(=O)OC)[C@H](OC(C)=O)[C@]5(CC)C=CCN6CC[C@]43[C@@H]65)C2)C1 | 30 nM | 310 nM | 20 nM |
| CC[C@]1(NC(=O)C2CCC2)C[C@H]2CN(CCc3c([nH]c4ccccc34)[C@@](C(=O)OC)(c3cc4c(cc3OC)N(C)[C@H]3[C@@](O)(C(=O)OC)[C@H](OC(C)=O)[C@]5(CC)C=CCN6CC[C@]43[C@@H]65)C2)C1 | 5.4 nM | 85 nM | 5.4 nM |
| CC[C@]1(NC(=O)c2ccc(Cl)c(Cl)c2)C[C@H]2CN(CCc3c([nH]c4ccccc34)[C@@](C(=O)OC)(c3cc4c(cc3OC)N(C)[C@H]3[C@@](O)(C(=O)OC)[C@H](OC(C)=O)[C@]5(CC)C=CCN6CC[C@]43[C@@H]65)C2)C1 | 8.7 nM | 80 nM | 8.5 nM |
| CC[C@]1(NC(=O)c2ccc3ccsc3c2)C[C@H]2CN(CCc3c([nH]c4ccccc34)[C@@](C(=O)OC)(c3cc4c(cc3OC)N(C)[C@H]3[C@@](O)(C(=O)OC)[C@H](OC(C)=O)[C@]5(CC)C=CCN6CC[C@]43[C@@H]65)C2)C1 | 2.9 nM | 7.7 nM | 3.1 nM |
| CC[C@]1(NC(=O)c2ccc(OC)c(Cl)c2)C[C@H]2CN(CCc3c([nH]c4ccccc34)[C@@](C(=O)OC)(c3cc4c(cc3OC)N(C)[C@H]3[C@@](O)(C(=O)OC)[C@H](OC(C)=O)[C@]5(CC)C=CCN6CC[C@]43[C@@H]65)C2)C1 | 5.1 nM | 8.9 nM | 3.7 nM |
| CC[C@]1(NC(=O)c2ccc3ocnc3c2)C[C@H]2CN(CCc3c([nH]c4ccccc34)[C@@](C(=O)OC)(c3cc4c(cc3OC)N(C)[C@H]3[C@@](O)(C(=O)OC)[C@H](OC(C)=O)[C@]5(CC)C=CCN6CC[C@]43[C@@H]65)C2)C1 | 5.1 nM | 70 nM | 5.4 nM |
| CC[C@]1(NS(=O)(=O)c2ccc3ccccc3c2)C[C@H]2CN(CCc3c([nH]c4ccccc34)[C@@](C(=O)OC)(c3cc4c(cc3OC)N(C)[C@H]3[C@@](O)(C(=O)OC)[C@H](OC(C)=O)[C@]5(CC)C=CCN6CC[C@]43[C@@H]65)C2)C1 | 60 nM | 440 nM | 50 nM |
| CC[C@]1(NC(=O)c2ccc(C)c(NC(C)=O)c2)C[C@H]2CN(CCc3c([nH]c4ccccc34)[C@@](C(=O)OC)(c3cc4c(cc3OC)N(C)[C@H]3[C@@](O)(C(=O)OC)[C@H](OC(C)=O)[C@]5(CC)C=CCN6CC[C@]43[C@@H]65)C2)C1 | 4.3 nM | 330 nM | 5.4 nM |
| CC[C@]1(NC(=O)C2CCNCC2)C[C@H]2CN(CCc3c([nH]c4ccccc34)[C@@](C(=O)OC)(c3cc4c(cc3OC)N(C)[C@H]3[C@@](O)(C(=O)OC)[C@H](OC(C)=O)[C@]5(CC)C=CCN6CC[C@]43[C@@H]65)C2)C1 | > 10000 nM | > 10000 nM | 4200 nM |
| CC[C@]1(NC(=O)c2ccc3cc(N)ccc3c2)C[C@H]2CN(CCc3c([nH]c4ccccc34)[C@@](C(=O)OC)(c3cc4c(cc3OC)N(C)[C@H]3[C@@](O)(C(=O)OC)[C@H](OC(C)=O)[C@]5(CC)C=CCN6CC[C@]43[C@@H]65)C2)C1 | 0.8 nM | 7.4 nM | 0.7 nM |
| CC[C@]1(NC(=O)c2ccc(Br)cc2)C[C@H]2CN(CCc3c([nH]c4ccccc34)[C@@](C(=O)OC)(c3cc4c(cc3OC)N(C)[C@H]3[C@@](O)(C(=O)OC)[C@H](OC(C)=O)[C@]5(CC)C=CCN6CC[C@]43[C@@H]65)C2)C1 | 1.4 nM | 10 nM | 2.7 nM |
| C=CC(=O)N[C@@]1(CC)C[C@H]2CN(CCc3c([nH]c4ccccc34)[C@@](C(=O)OC)(c3cc4c(cc3OC)N(C)[C@H]3[C@@](O)(C(=O)OC)[C@H](OC(C)=O)[C@]5(CC)C=CCN6CC[C@]43[C@@H]65)C2)C1 | 6 nM | 520 nM | 7 nM |
| CC[C@]1(NC(=O)Cc2ccccc2)C[C@H]2CN(CCc3c([nH]c4ccccc34)[C@@](C(=O)OC)(c3cc4c(cc3OC)N(C)[C@H]3[C@@](O)(C(=O)OC)[C@H](OC(C)=O)[C@]5(CC)C=CCN6CC[C@]43[C@@H]65)C2)C1 | 55 nM | 550 nM | 55 nM |
| CC[C@]1(NC(=O)/C=C/c2ccsc2)C[C@H]2CN(CCc3c([nH]c4ccccc34)[C@@](C(=O)OC)(c3cc4c(cc3OC)N(C)[C@H]3[C@@](O)(C(=O)OC)[C@H](OC(C)=O)[C@]5(CC)C=CCN6CC[C@]43[C@@H]65)C2)C1 | 0.6 nM | 20 nM | 0.5 nM |
| CC[C@]1(NC(=O)c2ccc3ccccc3c2)C[C@H]2CN(CCc3c([nH]c4ccccc34)[C@@](C(=O)OC)(c3cc4c(cc3OC)N(C)[C@H]3[C@@](O)(C(=O)OC)[C@H](OC(C)=O)[C@]5(CC)C=CCN6CC[C@]43[C@@H]65)C2)C1 | 2.3 nM | 6.4 nM | 1.9 nM |
| CC[C@]1(NC(=O)c2cccc(N3CCOCC3)c2)C[C@H]2CN(CCc3c([nH]c4ccccc34)[C@@](C(=O)OC)(c3cc4c(cc3OC)N(C)[C@H]3[C@@](O)(C(=O)OC)[C@H](OC(C)=O)[C@]5(CC)C=CCN6CC[C@]43[C@@H]65)C2)C1 | 2.8 nM | 30 nM | 4.8 nM |
| CC[C@]1(NC(=O)c2coc3ccccc23)C[C@H]2CN(CCc3c([nH]c4ccccc34)[C@@](C(=O)OC)(c3cc4c(cc3OC)N(C)[C@H]3[C@@](O)(C(=O)OC)[C@H](OC(C)=O)[C@]5(CC)C=CCN6CC[C@]43[C@@H]65)C2)C1 | 4.6 nM | 35 nM | 4 nM |
| CC[C@]1(NC(=O)c2ccc3c(c2)ncn3C)C[C@H]2CN(CCc3c([nH]c4ccccc34)[C@@](C(=O)OC)(c3cc4c(cc3OC)N(C)[C@H]3[C@@](O)(C(=O)OC)[C@H](OC(C)=O)[C@]5(CC)C=CCN6CC[C@]43[C@@H]65)C2)C1 | 0.6 nM | 8 nM | 0.7 nM |
| CC[C@]1(NC(=O)c2cc3ccccc3o2)C[C@H]2CN(CCc3c([nH]c4ccccc34)[C@@](C(=O)OC)(c3cc4c(cc3OC)N(C)[C@H]3[C@@](O)(C(=O)OC)[C@H](OC(C)=O)[C@]5(CC)C=CCN6CC[C@]43[C@@H]65)C2)C1 | 1.1 nM | 15 nM | 1.8 nM |
| CC[C@]1(NC(=O)c2ccccc2OC)C[C@H]2CN(CCc3c([nH]c4ccccc34)[C@@](C(=O)OC)(c3cc4c(cc3OC)N(C)[C@H]3[C@@](O)(C(=O)OC)[C@H](OC(C)=O)[C@]5(CC)C=CCN6CC[C@]43[C@@H]65)C2)C1 | 10 nM | 100 nM | 30 nM |
| CC[C@]1(NC(=O)c2ccc3sccc3c2)C[C@H]2CN(CCc3c([nH]c4ccccc34)[C@@](C(=O)OC)(c3cc4c(cc3OC)N(C)[C@H]3[C@@](O)(C(=O)OC)[C@H](OC(C)=O)[C@]5(CC)C=CCN6CC[C@]43[C@@H]65)C2)C1 | 4.9 nM | 16 nM | 4.2 nM |
| CC[C@]1(NC(=O)c2ccc3cc(OC)ccc3c2)C[C@H]2CN(CCc3c([nH]c4ccccc34)[C@@](C(=O)OC)(c3cc4c(cc3OC)N(C)[C@H]3[C@@](O)(C(=O)OC)[C@H](OC(C)=O)[C@]5(CC)C=CCN6CC[C@]43[C@@H]65)C2)C1 | 3.5 nM | 20 nM | 2.5 nM |
